Test results: patent publication US7214534B2, “Isolated nucleic acid molecules encoding mutant μ opioid receptors” (Regents of the University of Minnesota, priority 2002, dated 2007)
Where “and” joins values, the source holds several entries; their conditions need not be identical. Equal entries are not always repeated.

Tests used:
[1] = biological target: T1, μ opioid receptor S196A mutant (Mus musculus, UniProt P42866, S196A); assay: [3H]DAMGO saturation binding (Scatchard analysis), brain membranes of homozygous Cre/S196A mice; settings: listed as [^3H]DAMGO
T1 construct: brain membranes from homozygous Cre/S196A (HOMO) mutant mice; from tissue; host or cells: brain membranes of homozygous Cre/S196A knock-in mice
T1 sequence (P42866 whole entry S196A): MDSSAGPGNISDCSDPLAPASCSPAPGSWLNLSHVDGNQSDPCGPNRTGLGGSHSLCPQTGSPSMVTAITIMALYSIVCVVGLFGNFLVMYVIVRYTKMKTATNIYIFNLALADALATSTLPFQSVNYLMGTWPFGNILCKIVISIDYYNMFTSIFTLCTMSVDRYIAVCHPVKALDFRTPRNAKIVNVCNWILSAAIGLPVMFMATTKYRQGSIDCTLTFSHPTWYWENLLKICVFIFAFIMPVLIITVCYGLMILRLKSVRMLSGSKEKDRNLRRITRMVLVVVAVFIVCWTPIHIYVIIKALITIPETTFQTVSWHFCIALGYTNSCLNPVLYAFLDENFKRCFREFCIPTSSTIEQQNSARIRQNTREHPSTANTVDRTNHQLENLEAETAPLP
Method: (§1) Approximately 200–350 μg of membranes were used in each assay.

[2] = biological target: T2, μ opioid receptor (wild-type) (Mus musculus, UniProt P42866); assay: [3H]DAMGO saturation binding (Scatchard analysis), brain membranes of wild-type mice
T2 construct: Brain membranes were prepared from both wild-type mice; from tissue; host or cells: mouse brain membranes (wild-type littermates)
T2 sequence (P42866 whole entry): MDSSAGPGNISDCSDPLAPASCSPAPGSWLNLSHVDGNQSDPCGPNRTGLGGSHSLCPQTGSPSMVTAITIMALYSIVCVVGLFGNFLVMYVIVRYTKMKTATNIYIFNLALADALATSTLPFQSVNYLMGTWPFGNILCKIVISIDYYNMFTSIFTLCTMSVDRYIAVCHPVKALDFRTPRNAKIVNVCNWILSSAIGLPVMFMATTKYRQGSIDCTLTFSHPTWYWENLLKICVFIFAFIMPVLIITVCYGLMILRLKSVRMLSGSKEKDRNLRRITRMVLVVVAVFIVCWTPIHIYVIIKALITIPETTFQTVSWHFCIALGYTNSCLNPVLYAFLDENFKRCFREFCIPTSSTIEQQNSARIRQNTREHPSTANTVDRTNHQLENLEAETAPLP
Method: as §1

Cre/S196A mice [3] = assay: Acetic acid-induced writhing inhibition test, Cre/S196A mutant mice; format: in vivo, mouse; settings: for ED50: Mus musculus, ip, 0.6% acetic acid i.p.
Method: (§2) Writhing tests were conducted as follows. […] Writhing was counted for 20 minutes following the i.p. injection. At the same time, mice from each genotype were injected with saline s.c. plus acetic acid i.p., and the mean count of writhing of the saline group was calculated. The % MPE for writhing test was calculated by the following formula: (mean count of saline group−count of drug group)*100/(mean count of saline group).

wild-type mice [4] = assay: Tail withdrawal antinociception test, wild-type mice; format: in vivo, mouse; settings: for ED50: Mus musculus, 0.5 h, read-out: ED50 tail withdrawal
Method: (§3) For tail withdrawal testing, mice were loosely wrapped in an adsorbent towel, and their tails were immersed about 2 cm into water heated to 53° C. or placed under radiant heat. The latency to tail withdrawal was recorded. A cut-off time of 24 seconds for warm water or 12 seconds for radiant heat was used to minimize tail damage. […] Percent maximum possible effects (% MPE) were calculated by the following formula: (measured latency−baseline latency)*100/(cut-off time−baseline latency). Each dose for each genotype involved 8–12 mice. ED50 values were derived from regression analysis on the linear portion of each dose-response curve or calculated by non-linear regression. A two way analysis of variance (ANOVA) (genotype and dose) was used to determine genetic differences among genotypes in the same dose groups.

wild-type mice [5] = assay: Acetic acid-induced writhing inhibition test, wild-type mice; format: in vivo, mouse; settings: for ED50: Mus musculus, ip, 0.6% acetic acid i.p.
Method: as §2

[6] = system: μ opioid receptor knockout mice; assay: Nalorphine antinociception in μ opioid receptor knockout mice; format: in vivo, mouse; settings: μ opioid receptor knockout mice (data not shown)
Cre/S196A mice [7] = assay: Tail withdrawal antinociception test, Cre/S196A mutant mice; settings: for ED50: Mus musculus, radiant heat
Method: as §3

[8] = read-out: ED50 tail withdrawal, homozygous Cre/S196A mice, 30 minutes after morphine and nalorphine, 12 minutes after naloxone injection

Compound: C[C@@H](NC(=O)[C@@H](N)Cc1ccc(O)cc1)C(=O)NCC(=O)N(C)[C@@H](Cc1ccccc1)C(=O)NCCO [DAMGO, [D-Ala^1.N-McPhe^4.Gly^5-ol]enkephalin]
- Bmax [1]: 17.5±2.3 fmol/mg protein and 17.5 fmol/mg protein
- Bmax [2]: 113±4.3 fmole/mg-protein

Compound: C=CCN1CC[C@]23c4c5ccc(O)c4O[C@H]2[C@@H](O)C=C[C@H]3[C@H]1C5 [nalorphine]
- ED50 (Cre/S196A mice [3]; homozygous Cre/S196A mice): 0.27 mg/kg
- maximal antinociceptive response compared with morphine, inhibition of writhing (Cre/S196A mice [3]; homozygous Cre/S196A mice, dose of 1 mg/kg): same maximal antinociceptive response as morphine
- ED50 (wild-type mice [4]): 0.61 mg/kg
- maximal response, of the maximal morphine response, tail withdrawal (wild-type mice [4]; wild-type mice): 24±5%
- maximal response, of the maximal morphine response, writhing (wild-type mice [5]): 44±3%
- ED50 (wild-type mice [5]): 0.37 mg/kg
- antinociceptive effect [6]: absence of nalorphine effect
- ED50 (Cre/S196A mice [7]; [8]): 0.89 mg/kg
- antinociceptive response, of the morphine maximal response, tail withdrawal (Cre/S196A mice [7]; homozygous Cre/S196A mice, maximal dose tested, 10 mg/kg): 68±5%

Compound: CN1CC[C@]23c4c5ccc(O)c4O[C@H]2[C@@H](O)C=C[C@H]3[C@H]1C5 [morphine]
- ED50 (Cre/S196A mice [3]; heterozygous Cre/S196A mice): 0.68 mg/kg
- ED50 (Cre/S196A mice [3]; homozygous Cre/S196A mice): 0.5 mg/kg
- ED50 (wild-type mice [4]): 4.4 mg/kg
- ED50 (wild-type mice [5]): 0.48 mg/kg
- ED50 (Cre/S196A mice [7]; read-out: ED50 tail withdrawal, heterozygous Cre/S196A mice): 3.47 mg/kg
- ED50 (Cre/S196A mice [7]; [8]): 3.2 mg/kg

Compound: C=CCN1CC[C@]23c4c5ccc(O)c4O[C@H]2C(=O)CC[C@@]3(O)[C@H]1C5 [naloxone]
- maximal response, of that observed with morphine, writhing inhibition (Cre/S196A mice [3]; Cre/S196A mice): 45±3
- ED50 (Cre/S196A mice [3]; homozygous Cre/S196A mice): 0.22 mg/kg
- antinociceptive response, tail withdrawal (wild-type mice [4]; wild-type mice, doses of 0.1 to 10 mg/kg): did not produce significant antinociceptive responses
- antinociceptive response, writhing (wild-type mice [5]; doses of 0.1 to 10 mg/kg): did not produce significant antinociceptive responses
- ED50 (Cre/S196A mice [7]; [8]): 1.32 mg/kg
- toxic effects (Cre/S196A mice [7]; both the mutant and the wild-type mice at higher dosages): increasing toxic effects
